# Entries after “also recorded” stand apart in the source; their conditions may differ. Read-outs that look alike come from different tables or passages of the source.
# Legend:
# [1] = target: T1, human CerS2 (Homo sapiens, UniProt Q96G23); experiment: Ceramide synthase assay, NBD-dihydrosphingosine, C24:1-CoA; HEK293 cells expressing human CerS2; assay type: biochemical; conditions: inhibitor range 10 nM–100 μM; read-out: IC50 hCerS2
# T1 sequence (Q96G23 1-380): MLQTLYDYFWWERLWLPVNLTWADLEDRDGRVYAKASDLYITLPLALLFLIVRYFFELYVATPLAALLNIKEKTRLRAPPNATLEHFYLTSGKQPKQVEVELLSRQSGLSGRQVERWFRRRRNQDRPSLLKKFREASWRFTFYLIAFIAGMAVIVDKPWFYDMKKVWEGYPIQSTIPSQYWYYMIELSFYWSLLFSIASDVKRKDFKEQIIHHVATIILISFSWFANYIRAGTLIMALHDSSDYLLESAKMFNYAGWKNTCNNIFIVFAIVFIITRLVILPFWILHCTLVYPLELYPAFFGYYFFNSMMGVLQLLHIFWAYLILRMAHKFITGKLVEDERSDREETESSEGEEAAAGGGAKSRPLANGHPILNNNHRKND
# Method: (§1) Ceramide synthase assays were carried out using an HPLC-based assay with a fluorescent NBD-dihydrosphingosine substrate. All cell lines used for these assays were originally sourced from ATCC. […] Cells were sonicated in a Diagenode Bioruptor sonicating bath for 5 min, after which cell extracts were cleared by centrifugation at 800 × g for 10 min. Protein concentration in the supernatant was assayed using the bicinchoninic acid (BCA) assay, and the supernatant stored at −80 °C. COS cells were infected with lentiviral constructs expressing murine CerS1, 2, or 5, then homogenised as described above.
# (§2) The reaction buffer consisted of 20 mM Hepes pH 7.4, 25 mM KCl, 2 mM MgCl2, 0.5 mM dithiothreitol, 0.1% fatty acid free BSA, 10 μM NBD-dihydrosphingosine and 50 μM fatty acid free BSA. C18:0-CoA was used as the fatty acyl substrate for CerS1 and CerS4; C24:1-CoA for CerS2; and C16:0-CoA for CerS5 and CerS6. All reactions were run in triplicate. Test inhibitors were added, after which reactions were started with the addition of 2.5–25 μg lysate protein (optimised depending on the particular CerS isoform being assayed). […] The reaction mixture was transferred to a glass HPLC vial with 300 μL fused glass insert (Thermo Fisher Scientific) and NBD-dihydroceramide reaction products were analysed on a Thermo Scientific Surveyor HPLC connected to a Shimadzu RF-10AXL fluorescent detector (set to gain of 3). […] The gradient started at 20:80 A/B, increasing to 5:95 A/B over 2 min, then to 100% B over 6 min. The gradient was then held at 100% B for 2 min, before re-equilibration to 20:80 A/B for a further 2 min. Peak areas were integrated using Xcalibur software (Thermo Fisher Scientific).
# [2] = system: HEK293 cells; experiment: Detection of the phosphate of the compound in cultured cells, LC-MS/MS; assay type: in vitro ADME; conditions: 1 µM, 2 h
# Method: LC-MS/MS was performed on a TSQ Quantum Access triple quadrupole mass spectrometer in positive ion mode, coupled to an Accela UPLC system (Thermo Scientific). Extracts (20 μL) were separated on a 2 × 100 mm Eclipse XDB-C8 column with 1.8 μm particle size (Agilent Technologies), using a 7.5 min binary HPLC gradient: 0 min, 70% B ([…]); 1.5 min, 70% B; 3.5 min, 95% B; 4 min, 95% B; 4.5 min, 70% B; 7.5 min 70% B. Mobile phase A: 2 mM ammonium formate/1% formic acid in water; mobile phase B: 1 mM ammonium formate/1% formic acid in methanol. The flow rate was 0.4 mL min^−1, increasing to 0.5 mL min^−1 from 5–7 min, and column oven 30 °C. […] Visualisation and quantification of peaks was performed using Thermo Fisher’s XCalibur software v2.2.
# Supplementary Figure 8. P053 is not phosphorylated in situ or in vivo. (a-b) HEK293 cells […]
# LC-MS/MS analysis. Chromatograms for (a) FTY720 and its phosphate, and (b) P053 and its putative phosphate are shown. […]
# mg/kg/day for 6 weeks, corresponding to a plasma concentration of ~300 nM. No peak is […]
# (1 picture or pasted object on this page, not shown here)
# [3] = target: T2, CerS1 (Homo sapiens, UniProt P27544); experiment: Ceramide synthase assay, HPLC-based with fluorescent NBD-dihydrosphingosine, C18:0-CoA; extracts of HEK293 cells expressing human CerS1; assay type: biochemical; parameters: host or cells: HEK293
# T2 sequence (P27544 1-350): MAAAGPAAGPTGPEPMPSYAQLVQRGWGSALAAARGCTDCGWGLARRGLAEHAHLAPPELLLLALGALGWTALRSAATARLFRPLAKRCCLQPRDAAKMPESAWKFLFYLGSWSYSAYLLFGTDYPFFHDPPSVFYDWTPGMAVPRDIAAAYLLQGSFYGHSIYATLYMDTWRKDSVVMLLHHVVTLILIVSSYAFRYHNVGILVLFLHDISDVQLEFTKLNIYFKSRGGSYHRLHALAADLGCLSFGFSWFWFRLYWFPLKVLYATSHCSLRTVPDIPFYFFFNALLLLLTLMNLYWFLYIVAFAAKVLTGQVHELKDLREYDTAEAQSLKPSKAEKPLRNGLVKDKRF
# Method: as §1, §2
# [4] = inhibitor range 10 nM–100 μM, read-out: IC50 hCerS1
IC50 ([3]; read-out: IC50 for inhibition of CerS1),Structure (SMILES),IC50 [1],phosphate of the compound in cultured HEK293 cells [2],"IC50 [3, 4]","IC50, all CerS isoforms ([3]; all CerS isoforms, in words)"
–,"CCCCCCCCc1ccc(CCC(N)(CO)CO)cc1 [FTY720, reference compound]",19.1 ± 0.1 µM,definitive peak; also recorded: clearly detected,–,–
–,"C[C@@](N)(CO)CCc1ccc(OCc2ccccc2)cc1 [G024, (2S)-2-amino-4-(4′-benzyloxyphenyl)-2-methyl-1-butanol]",14.5 ± 0.09 µM,–,6 ± 0.1 µM,–
0.5 µM,"C[C@@](N)(CO)CCc1ccc(OCc2ccc(Cl)c(Cl)c2)cc1 [P053, (S)-2-amino-4-(4-(3,4-dichlorobenzyloxy)phenyl)-2-methylbutan-1-ol]",28.6 ± 0.15 µM,only background signal; also recorded: not detected,0.54 ± 0.06 µM,–
–,"CCCC[C@@H](C)[C@@H](OC(=O)C[C@@H](CC(=O)O)C(=O)O)[C@H](C[C@@H](C)C[C@H](O)CCCC[C@@H](O)C[C@H](O)[C@H](C)N)OC(=O)C[C@@H](CC(=O)O)C(=O)O [FB1, reference compound]",0.15 ± 0.08 µM,–,0.22 ± 0.05 µM,sub-micromolar
